# Results: article PMC6753678, “Fueling Open Innovation for Malaria Transmission-Blocking Drugs: Hundreds of Molecules Targeting Early Parasite Mosquito Stages” (Frontiers in Microbiology, 2019)
# pIC50: −log10 of the molar value. Like-named read-outs stand apart in the source and are kept apart here.
# Assays:
# [1] = system: P. falciparum female gametocytes; test: P. falciparum female gametogenesis assay (Pf FGAA); settings: 1: YES, 0: NO
# [2] = system: 3D7-strain P. falciparum asexual parasites; test: P. falciparum asexual growth inhibition assay (Pf GIA); format: cell-based, Plasmodium falciparum; settings: dose response confirmation; read-out: Pf asexual growth inhibition assays IC50
# Summary of the method: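 3D7 parasites at 0.25% parasitemia, 2% hematocrit were exposed to compounds in dose response for 72 h at 37°C under 5% CO2, 5% O2. Viability read as parasite LDH activity (nitro blue tetrazolium, A650) after freeze-thaw; inhibition scaled to chloroquine (50 μM) and DMSO controls, mean of three biological replicates.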
# HepG2 cells [3] = settings: ref Miguel-Blanco et al 2017, cited from earlier work
# [4] = system: P. falciparum female gametocytes; design: method as in Miguel-Blanco et al 2017; settings: ref Miguel-Blanco et al 2017, read-out: Pf FGAA IC50, cited from earlier work
# [5] = system: P. berghei ookinete development; settings: for Is compound selective in assay? Pb ODA active?: 1: YES, 0: NO; for % inhibition, Replicate A / % inhibition, Replicate B: primary screen at 1 μM
# HepG2 cells [6] = test: HepG2 cytotoxicity assay; settings: for Unified cytotox: HepG2 values of the three screens unified; for pIC50: read-out: HepG2 cytotoxicity assay IC50, dose response confirmation
# Summary of the method: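 Cells at 2,500 per well in MEM with 10% fetal bovine serum and 1% NEAA were exposed to test compounds for 48 h at 37°C, 5% CO2. Viability was read by fluorescence, with percent inhibition calculated against 50 μM doxorubicin (positive) and DMSO (negative) controls.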
# [7] = read-out: Pb ODA IC50, this manuscript
# [8] = read-out: Pb Ookinete development assay IC50, dose response confirmation
# [9] = HepG2 value reported with Pf FGAA screen
Structure (SMILES),Is compound selective in assay? Pf FGAA active? [1],pIC50 [2],HepG2 cytoxicity (Pf FGAA screen) (HepG2 cells [3]; HepG2) [µM],pIC50 [4],Is compound selective in assay? Pb ODA active? [5],"% inhibition, Replicate A [5] [%]","% inhibition, Replicate B [5] [%]","pIC50 [5, 7]","pIC50 [5, 8]","HepG2 cytoxicity (Pb ODA, this manuscript) (HepG2 cells [6]) [µM]",Unified cytotox (HepG2 cells [6]) [µM],pIC50 (HepG2 cells [6]),HepG2 cytoxicity (Pf FGAA screen) (HepG2 cells [3]; [9]) [µM],pIC50 ([4]; TCAMS library screen),Is compound selective in assay? Pf FGAA active? ([1]; >10-fold selectivity over cytotox),HepG2 cytoxicity (HepG2 cells [3]; HepG2 value reported with the Pf FGAA screen) [µM]
Cc1ccnc(NC(c2cccc(Cl)c2Cl)c2ccc3cccnc3c2O)c1 (stereo not drawn) [TCMDC-123997],1 (1: YES),5.70,45.69,5.72,0 (0: NO),48.46,53.18,5.46,5.46,2.88,24.29,5.54,–,–,–,–
Cc1ccc(-n2c(Sc3ncnc4sccc34)nnc2N2CCCC2)cc1 [TCMDC-125247],1 (1: YES),6.56,89.13,6.31,1 (1: YES),123.83,128.92,6.66,6.65,74.13,81.63,4.13,–,–,–,–
O=C(Nc1nc(-c2ccccn2)cs1)c1ccc(S(=O)(=O)N2CCc3ccccc32)cc1 [TCMDC-125432],1 (1: YES),5.41,29.22,5.97,0 (0: NO),17.85,54.79,5.62,5.62,4.22,16.72,5.37,–,–,–,–
Oc1c(C(Nc2nc3ccccc3s2)c2ccccc2)ccc2cccnc12 (stereo not drawn) [TCMDC-125565],0 (0: NO),5.62,–,5.52,0 (0: NO),27.85,50.32,5.40,5.40,2.34,2.34,5.63,–,–,–,–
CCCC(N)C(=O)NC1CCN(c2c(F)c(N)c3c(=O)c(C(=O)O)cn4c3c2Oc2ccccc2-4)C1.Cl (stereo not drawn) [TCMDC-125701],0 (0: NO),7.25,1.61,5.94,0 (0: NO),70.26,78.60,–,6.05,3.63,2.62,5.44,–,–,–,–
COc1ccc2nc3cc(Cl)ccc3c(N)c2c1.Cl [TCMDC-125835],0 (0: NO),7.54,1.57,6.17,0 (0: NO),74.62,77.49,5.20,5.20,6.17,3.87,5.21,–,–,–,–
Cc1cc(Nc2ncc(C#N)c(Nc3ccccc3C(N)=O)n2)ccc1N1CCN(C)CC1.Cl [TCMDC-134115],0 (0: NO),8.15,0.40,5.78,1 (1: YES),100.09,101.70,7.67,7.68,3.98,2.19,5.40,–,–,–,–
Cc1cccc(Nc2nc(N[C@@H]3CCCNC3)nc3cc[nH]c(=O)c23)c1.O=C(O)C(F)(F)F [TCMDC-134835],0 (0: NO),6.59,3.25,5.73,0 (0: NO),88.28,77.31,6.05,6.05,4.57,3.91,5.34,–,–,–,–
Nc1nc(N)c2c(ccc3c2ccn3Cc2cccc(F)c2)n1 [TCMDC-137810],0 (0: NO),> 9.70,0.06,5.85,0 (0: NO),49.99,58.69,6.44,6.44,0.17,0.11,6.77,–,–,–,–
N#Cc1ccc(Cn2ccc3c4c(N)nc(N)nc4ccc32)cc1 [TCMDC-137820],0 (0: NO),7.66,<0.0017,5.97,0 (0: NO),57.43,49.47,5.81,5.81,0.0017,0.0017,8.77,–,–,–,–
Cc1ccc(S(=O)(=O)N(CCCNCc2cccc(O)c2)c2ccccc2)cc1 [TCMDC-138022],1 (1: YES),6.91,44.67,5.94,1 (1: YES),53.17,87.34,5.83,5.83,34.67,39.67,4.46,–,–,–,–
CN(C)CCNCc1ccc(-c2ccc3c(Nc4ccc(Cl)cc4F)ccnc3c2)o1 [TCMDC-138391],0 (0: NO),–,–,–,–,–,–,–,–,–,–,–,0.89,5.77,–,–
Fc1cc(Cl)ccc1Nc1ccnc2cc(-c3ccc(CN4CCOCC4)o3)ccc12 [TCMDC-138393],0 (0: NO),–,–,–,–,–,–,–,–,–,–,–,5.62,6.19,–,–
Cl.Fc1cc(Cl)ccc1Nc1ccnc2cc(-c3ccc(CN4CCNCC4)o3)ccc12 [TCMDC-138394],0 (0: NO),–,–,–,–,–,–,–,–,–,–,–,12.05,5.72,–,–
CN(C)CCN(C)Cc1ccc(-c2ccc3c(Nc4ccc(Oc5ccccn5)cc4)ccnc3c2)o1 [TCMDC-138426],0 (0: NO),–,–,–,–,–,–,–,–,–,–,–,5.37,5.69,–,–
CN(/N=C/C=C/c1ccc(Cl)cc1)c1nc(NCCc2ccc(O)cc2)nc(N2CCNCC2)n1 [TCMDC-138546],0 (0: NO),–,–,–,–,–,–,–,–,–,–,–,13.18,5.71,–,–
CC(C)(C)CNCC(C)(C)c1nc(-c2ccc(Cl)c(O)c2)c(-c2ccncc2)[nH]1.Cl [TCMDC-140549],1 (1: YES),6.09,11.63,6.00,0 (0: NO),58.06,49.80,5.87,5.87,12.02,11.83,4.92,–,–,–,–
CC(C)(CN)c1nc(-c2ccc(Br)c(O)c2)c(-c2ccncc2)[nH]1.Cl [TCMDC-140680],1 (1: YES),5.81,45.82,6.08,1 (1: YES),97.33,90.28,5.71,5.71,47.32,46.57,4.32,–,–,–,–
CC(C)(CNC(=O)[C@H]1CCCCN1)c1nc(-c2ccc(Cl)c(O)c2)c(-c2ccncc2)[nH]1.Cl [TCMDC-141070],1 (1: YES),6.09,28.96,6.28,1 (1: YES),24.32,51.52,–,5.59,61.66,45.31,4.21,–,–,–,–
O=c1c(NCCCN(Cc2ccc(F)cc2)c2ccccn2)c(NCc2cccnc2)c1=O [TCMDC-142311],–,–,–,6.44,–,–,–,–,–,–,–,–,–,–,1 (1: YES),>100
